According to patent publication US10450316B2, “Certain protein kinase inhibitor” (Chongqing Fochon Pharmaceutical Co., Ltd., priority 2015, dated 2019):

System: BE(2)-C cell
Test: Cell proliferation assay (MTS) in BE(2)-C cells
Assay type: cell-based
Details: Homo sapiens, inhibition of BE(2)-C cell proliferation, 48 h
Procedure, shortened: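 Proliferation read-out was MTS absorbance at 490 nm, with 650 nm as reference, after a 2 h MTS incubation, giving IC50 values. Before reading, BE(2)-C cells plated at 3000 per well were exposed to nine compound concentrations from 10000 down to 1.5 nM for 48 h at 37 °C, 5% CO2.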

Row | Compound | IC50
1 | CCN1C2CC1CN(Cc1ccc(Nc3ncc(F)c(-c4cc(F)c5nc6n(c5c4)C4(CC6)CC4)n3)nc1)C2 [Example 134, N-(5-((6-ethyl-3,6-diazabicyclo[3.1.1]heptan-3-yl)methyl)pyridin-2-yl)-5-fluoro-4-(5-fluoro-2,3-dihydrospiro[benzo[d]pyrrolo[1,2-a]imidazole-1,1′-cyclopropan]-7-yl)pyrimidin-2-amine] | > 100 nM
2 | Fc1cnc(Nc2ccc(CN3C[C@@H]4C[C@H]3CN4)cn2)nc1-c1cc(F)c2nc3n(c2c1)C1(CC3)CC1 [Example 135, N-(5-(((1S,4S)-2,5-diazabicyclo[2.2.1]heptan-2-yl)methyl)pyridin-2-yl)-5-fluoro-4-(5-fluoro-2,3-dihydrospiro[benzo[d]pyrrolo[1,2-a]imidazole-1,1′-cyclopropan]-7-yl)pyrimidin-2-amine] | > 1000 nM
3 | CN1C[C@@H]2C[C@H]1CN2Cc1ccc(Nc2ncc(F)c(-c3cc(F)c4nc5n(c4c3)C3(CC5)CC3)n2)nc1 [Example 136, 5-fluoro-4-(5-fluoro-2,3-dihydrospiro[benzo[d]pyrrolo[1,2-a]imidazole-1,1′-cyclopropan]-7-yl)-N-(5-(((1S,4S)-5-methyl-2,5-diazabicyclo[2.2.1]heptan-2-yl)methyl)pyridin-2-yl)pyrimidin-2-amine] | > 100 nM
4 | CCN1C[C@@H]2C[C@H]1CN2Cc1ccc(Nc2ncc(F)c(-c3cc(F)c4nc5n(c4c3)C3(CC5)CC3)n2)nc1 [Example 137, N-(5-(((1S,4S)-5-ethyl-2,5-diazabicyclo[2.2.1]heptan-2-yl)methyl)pyridin-2-yl)-5-fluoro-4-(5-fluoro-2,3-dihydrospiro[benzo[d]pyrrolo[1,2-a]imidazole-1,1′-cyclopropan]-7-yl)pyrimidin-2-amine] | 10 to 100 nM
5 | C[C@@]12CNC[C@]1(C)CN(Cc1ccc(Nc3ncc(F)c(-c4cc(F)c5nc6n(c5c4)C4(CC6)CC4)n3)nc1)C2 [Example 138, N-(5-(((3aR,6aS)-3a,6a-dimethylhexahydro-pyrrolo[3,4-c]pyrrol-2(1H)-yl)methyl)pyridin-2-yl)-5-fluoro-4-(5-fluoro-2,3-dihydro-spiro[benzo[d]pyrrolo[1,2-a]imidazole-1,1′-cyclopropan]-7-yl)pyrimidin-2-amine] | > 1000 nM
6 | CN1C[C@@]2(C)CN(Cc3ccc(Nc4ncc(F)c(-c5cc(F)c6nc7n(c6c5)C5(CC7)CC5)n4)nc3)C[C@@]2(C)C1 [Example 139, 5-fluoro-4-(5-fluoro-2,3-dihydrospiro[benzo[d]pyrrolo[1,2-a]imidazole-1,1′-cyclopropan]-7-yl)-N-(5-(((3aR,6aS)-3a,5,6a-trimethylhexahydro-pyrrolo[3,4-c]pyrrol-2(1H)-yl)methyl)pyridin-2-yl)pyrimidin-2-amine] | > 1000 nM
7 | CCN1C[C@@]2(C)CN(Cc3ccc(Nc4ncc(F)c(-c5cc(F)c6nc7n(c6c5)C5(CC7)CC5)n4)nc3)C[C@@]2(C)C1 [Example 140, N-(5-(((3aR,6aS)-5-ethyl-3a,6a-dimethyl-hexahydropyrrolo[3,4-c]pyrrol-2(1H)-yl)methyl)pyridin-2-yl)-5-fluoro-4-(5-fluoro-2,3-dihydro-spiro[benzo[d]pyrrolo[1,2-a]imidazole-1,1′-cyclopropan]-7-yl)pyrimidin-2-amine] | > 100 nM
8 | Fc1cnc(Nc2ccc(CN3CC4CNC4C3)cn2)nc1-c1cc(F)c2nc3n(c2c1)C1(CC3)CC1 (centres unmarked) [Example 141, N-(5-((3,6-diazabicyclo[3.2.0]heptan-3-yl)methyl)pyridin-2-yl)-5-fluoro-4-(5-fluoro-2,3-dihydro-spiro[benzo[d]pyrrolo[1,2-a]imidazole-1,1′-cyclo-propan]-7-yl)pyrimidin-2-amine] | > 1000 nM
9 | CN1CC2CN(Cc3ccc(Nc4ncc(F)c(-c5cc(F)c6nc7n(c6c5)C5(CC7)CC5)n4)nc3)CC21 (centres unmarked) [Example 142, 5-fluoro-4-(5-fluoro-2,3-dihydrospiro[benzo[d]pyrrolo[1,2-a]imidazole-1,1′-cyclopropan]-7-yl)-N-(5-((6-methyl-3,6-diazabicyclo[3.2.0]heptan-3-yl)methyl)pyridin-2-yl)pyrimidin-2-amine] | > 1000 nM
10 | CCN1CC2CN(Cc3ccc(Nc4ncc(F)c(-c5cc(F)c6nc7n(c6c5)C5(CC7)CC5)n4)nc3)CC21 (centres unmarked) [Example 143, N-(5-((6-ethyl-3,6-diazabicyclo[3.2.0]heptan-3-yl)methyl)pyridin-2-yl)-5-fluoro-4-(5-fluoro-2,3-dihydrospiro[benzo[d]pyrrolo[1,2-a]imidazole-1,1′-cyclopropan]-7-yl)pyrimidin-2-amine] | > 1000 nM
11 | Fc1cnc(Nc2ccc(CN3CCN4CCC[C@H]4C3)cn2)nc1-c1cc(F)c2nc3n(c2c1)C1(CC3)CC1 [Example 144, (S)-5-fluoro-4-(5-fluoro-2,3-dihydrospiro[benzo [d]pyrrolo[1,2-a]imidazole-1,1′-cyclopropan]-7-yl)-N-(5-((hexahydropyrrolo[1,2-a]pyrazin-2(1H)-yl)methyl)pyridin-2-yl)pyrimidin-2-amine] | 10 to 100 nM
12 | Fc1cnc(Nc2ccc(CN3CCN4CCC[C@@H]4C3)cn2)nc1-c1cc(F)c2nc3n(c2c1)C1(CC3)CC1 [Example 145, (R)-5-fluoro-4-(5-fluoro-2,3-dihydrospiro[benzo [d]pyrrolo[1,2-a]imidazole-1,1′-cyclopropan]-7-yl)-N-(5-((hexahydropyrrolo[1,2-a]pyrazin-2(1H)-yl)methyl)pyridin-2-yl)pyrimidin-2-amine] | 10 to 100 nM
13 | O[C@@H]1C[C@H]2CN(Cc3ccc(Nc4ncc(F)c(-c5cc(F)c6nc7n(c6c5)C5(CC7)CC5)n4)nc3)CCN2C1 [Example 146, (7R,8aS)-2-((6-((5-fluoro-4-(5-fluoro-2,3-dihydro-spiro[benzo[d]pyrrolo[1,2-a]imidazole-1,1′-cyclo-propan]-7-yl)pyrimidin-2-yl)amino)pyridin-3-yl)methyl)octahydropyrrolo[1,2-a]pyrazin-7-ol] | > 1000 nM
14 | NC1C2CN(Cc3ccc(Nc4ncc(F)c(-c5cc(F)c6nc7n(c6c5)C5(CC7)CC5)n4)nc3)CC12 (centres unmarked) [Example 147, 3-((6-((5-fluoro-4-(5-fluoro-2,3-dihydrospiro [benzo[d]pyrrolo[1,2-a]imidazole-1,1′-cyclo-propan]-7-yl)pyrimidin-2-yl)amino)pyridin-3-yl)methyl)-3-azabicyclo[3.1.0]hexan-6-amine] | > 1000 nM
15 | Fc1cnc(Nc2ccc(CN3CCN4CCOC[C@H]4C3)cn2)nc1-c1cc(F)c2nc3n(c2c1)C1(CC3)CC1 [Example 148, (R)-5-fluoro-4-(5-fluoro-2,3-dihydrospiro[benzo [d]pyrrolo[1,2-a]imidazole-1,1′-cyclopropan]-7-yl)-N-(5-((hexahydropyrazino[2,1-c][1,4]oxazin-8(1H)-yl)methyl)pyridin-2-yl)pyrimidin-2-amine] | 10 to 100 nM
16 | Fc1cnc(Nc2ccc(CN3CCNCC3)cn2)nc1-c1cc(F)c2nc3n(c2c1)CCC3 [Example 149, 5-fluoro-4-(5-fluoro-2,3-dihydro-1H-benzo[d]pyrrolo[1,2-a]imidazol-7-yl)-N-(5-(piperazin-1-ylmethyl)pyridin-2-yl)pyrimidin-2-amine] | > 100 nM
17 | CN1CCN(Cc2ccc(Nc3ncc(F)c(-c4cc(F)c5nc6n(c5c4)CCC6)n3)nc2)CC1 [Example 150, 5-fluoro-4-(5-fluoro-2,3-dihydro-1H-benzo[d]pyrrolo[1,2-a]imidazol-7-yl)-N-(5-((4-methyl-piperazin-1-yl)methyl)pyridin-2-yl)pyrimidin-2-amine] | 10 to 100 nM
